# Reference: US11213509B2, “Compositions and methods for treating traumatic brain injury” (Ischemix, LLC, priority 2017, dated 2022)
# What was measured:
# [1] = Body weight and post-operative observations, rat model of focal TBI (BCCI); format: in vivo
# Source text: Adult, male, Spague-Dawley rats from Charles River were used. Animals were received at PsychoGenics and assigned unique identification numbers (tails marked). Animals were housed 2 per cage in polycarbonate rat cages equipped with microisolators and acclimated for up to 7 days. All rats were examined, handled, and weighed prior to initiation of the study to assure adequate health and suitability. During the course of the study, 12/12 light/dark cycles were maintained. The room temperature was maintained between 20 and 23° C. with a relative humidity maintained around 50%. Chow and water were provided ad libitum for the duration of the study. Animals were randomly assigned across treatment groups.
# BCCI TBI to the medial frontal cortex (MFC) was induced by a cortical contusion device (Custom Design & Fabrication, Inc [CDF], Richmond, Va.). This device creates a reliable contusion injury to the exposed area of the brain with a brass-tipped impounder. (Hoffman et al., 1994). Rats were anesthetized with isoflurane (5%) (Novaplus™), and 02 (300 cm^3/min), and mounted in a stereotaxic frame. […]
# Data are presented as mean±SEM and analyzed by one-way repeated measures Analysis of variance (ANOVA) in order to test the effects of treatment on beam balance times and Morris water maze performance. […]
# [2] = tested on: rat model of focal TBI; assay: Morris water maze, rat model of focal TBI (BCCI); format: in vivo; details: for Improvement in escape latency relative to Day 1 / Morris water maze escape latency: 30 mg/kg; for Morris water maze escape latency: vs saline
# Source text: BCCI TBI to the medial frontal cortex (MFC) was induced by a cortical contusion device (Custom Design & Fabrication, Inc [CDF], Richmond, Va.). This device creates a reliable contusion injury to the exposed area of the brain with a brass-tipped impounder. (Hoffman et al., 1994). Rats were anesthetized with isoflurane (5%) (Novaplus™), and 02 (300 cm^3/min), and mounted in a stereotaxic frame. Under aseptic conditions, a sagittal incision was made in the scalp and the fascia retracted to expose the cranium. Then, a 6-mm diameter trephine drill was used to open the skull immediately anterior to the bregma. TBI of the MFC was made with a 5-mm-diameter rounded brass impactor attached to a computer-controlled piston propelled electronically with following parameters: velocity=2.5 m/s; depth=3 mm; duration=100 ms). After BCCI, any cortical surface hemorrhaging was controlled and the fascia and scalp sutured. The animals were allowed to recover in a warmed recovery chamber and appropriate post-operative care was taken. Treatment was delivered 30 minutes after injury and at approximately 24 hrs after injury. Two weeks after injury, rats were tested in the Morris water maze (MWM). The MWM is a well-characterized test of spatial learning and memory in rodents. The objective of the MWM is to teach rats that there is an escape platform located somewhere in a large, water filled pool. The rats are naturally motivated to escape the pool. The rats use extra-maze visual cues to locate the position of a submerged platform over a series of trials. The MWM test was conducted beginning at day 14 after traumatic brain injury. Rats were acclimated to the test room at least 1 hour prior to testing. The MWM consists of a circular pool (160 cm diameter×50 cm height) containing water that was made opaque with non-toxic black paint in order to hide the escape platform (see FIG. 4A). The water temperature was kept at 25±1° C. The water surface was 15 cm from the rim of the pool, and the inner wall was always carefully wiped to eliminate any local cues. The pool was located in a large room with a number of extra-maze visual cues, including highly visible geometric images (squares, triangles, circles, etc.) hung on the wall, diffuse lighting, and curtains to hide the experimenter and the awaiting rats. Behavior was tracked by a video camera hanging above the pool. Video tracking software (ANY-maze) recorded and analyzed the behavior of the animal in the pool. After training, the rats were gently dried with clean paper towels and placed in a warmed holding cage for the rats to dry before being returned to their home cage. Training: During training, the rat was placed into the water facing the wall of the pool and allowed to search for the platform. If the rat found the platform within 60 seconds, the trial was stopped, and the rat was allowed to stay on the platform for 30 seconds before being moved. If the platform was not found within 60 seconds, rats were placed on the platform for 30 sec in order to allow them time to learn the position of the platform in relation of the room's visual cues. Rats were given 4 trials a day for 4 days (days 14 to 17), with a 30 second interval between trials. The starting point was randomly rotated for every rat in each trial. Probe Trial: On the fifth day (day 18 after surgery), the rats received a probe trial. The probe test consisted of placing the animal in the pool for 60 seconds without the platform and monitoring the time spent in the four quadrants of the pool (see FIG. 4B). An animal that has learned the position of the platform will spend more time searching that target quadrant of the pool. During training, a submerged hidden target platform is placed in the pool and this region is defined as the target quadrant (see FIG. 4A). During the probe trial, the platform is removed and the duration of swimming in the different quadrants is tracked by the video camera and computer. […]
# [3] = day 18 following surgery, 30 mg/kg vs saline
smiles,measurement,setting,value
"CC(NC(=O)C(CCC(=O)O)NC(=O)CCCCC1CCSS1)C(=O)O [CMX-2043, N—(R)-lipoyl-glutamylalanine]",Body weight / weight gain,"[1]; 30 mg/kg IV at 30 minutes and about 24 hrs after injury, vs saline",no adverse effects on weight gain
same,Survival (deaths within 24 hours post-injury),"[1]; 30 mg/kg IV, TBI-injured rats",9 surviving animals of the 11 animals treated
same,Improvement in escape latency relative to Day 1,[2]; Day 2 of training,4.9 s
same,Improvement in escape latency relative to Day 1,[2]; Day 3 of training,8.7 s
same,Improvement in escape latency relative to Day 1,"[2]; Day 4 of training, significantly better than saline",24.2 s
same,Morris water maze escape latency,[2]; day 1 of training,longer latency times than saline treated animals
same,Probe trial number of entries into the platform zone,[2]; [3],did not reveal a significant difference
same,Probe trial time spent in the target quadrant,[2]; [3],did not show an overall difference
same,Morris water maze escape latency,[2]; final training day,significantly faster escape latency
same,Morris water maze escape latency,[2]; training days 2 and 3,no differences between groups
same,Morris water maze swim distance,"[2]; training, 30 mg/kg vs saline",no difference
same,Morris water maze swim speed,"[2]; training, 30 mg/kg vs saline",no difference
